For four compounds, EC50 results are on record in patent publication US20200031858A1, “AVERMECTIN DERIVATIVES AS FXR MODULATORS” (Hepagene Therapeutics, Inc., priority 2017, published 2020).

The assay deals with T1, FXR-LBD (Farnesoid X Receptor) (Homo sapiens, UniProt Q96RI1).
T1 construct: Add 5 μl of 4×FXR-LBD to 384 well assay plates; purchased
T1 sequence (Q96RI1 262-486 limits assumed): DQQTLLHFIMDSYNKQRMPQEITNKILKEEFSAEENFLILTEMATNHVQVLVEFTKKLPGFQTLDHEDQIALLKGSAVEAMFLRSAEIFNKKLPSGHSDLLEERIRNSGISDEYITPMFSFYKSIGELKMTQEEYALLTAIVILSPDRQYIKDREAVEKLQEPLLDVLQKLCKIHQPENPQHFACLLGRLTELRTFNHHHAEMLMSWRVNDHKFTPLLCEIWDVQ
As to the kind of experiment: LanthaScreen TR-FRET Farnesoid X Receptor Coactivator Assay. It is filed as biochemical. The note with it: TR-FRET ratio 520 nm/495 nm; 10 doses, 3-fold serial dilution; GW4064 as positive control. As for the experimental part: The compounds of the present technology may be assayed using the following procedure and will be shown to have FXR binding activity.
LanthaScreen™ TR-FRET Farnesoid X Receptor Coactivator Assay
GW4064 as a positive control
• 1. All of compounds were 3-fold serial diluted from 10 mM stock for 10 doses in DMSO. • 2. Dilute each 100× agonist serial dilution to 2× using Complete Coregulator buffer G. • 3. Transfer 10 μl of each of the 2× agonist serial dilutions to 384 well assay plates. • 4. Add 5 μl of 4×FXR-LBD to 384 well assay plates. • 5. Add 5 μl of 4× peptide/4× antibody solution to 384 well assay plates. • 6. Incubate at room temperature protected from light. • 7. Read the plate at wavelengths of 520 nm and 495 nm on Envision 2104 plate reader. • 8. Calculate the TR-FRET ratio by dividing the emission signal at 520 nm by the emission signal at 495 nm. • 9. Calculate EC50 by fitting % Activity values and log of compound concentrations to nonlinear regression (dose response−variable slope) with Graphpad 5.0.
Background: Time-resolved FRET reads energy transfer from a long-lived donor to a nearby acceptor.
In general, EC50 refers to the midpoint of the concentration-response curve. As to `CON=C1C(C)=C[C@H]2C(=O)O[C@H]3C[C@@H](C/C=C(\C)[C@@H](O[C@H]4C[C@H](OC)[C@@H](O)[C@H](C)O4)[C@@H](C)/C=C/C=C4\CO[C@H]1[C@@]42O)O[C@@]1(C=C[C@H](C)[C@@H](C2CCCCC2)O1)C3` [Compound 35], the 50% effective concentration (EC50) fell in the range of 301 to 1000 nM.
The value for `CO[C@H]1C[C@H](O[C@H]2[C@H](C)O[C@@H](O[C@@H]3/C(C)=C/C[C@@H]4C[C@@H](C[C@]5(C=C[C@H](C)[C@@H](C6CCCCC6)O5)O4)OC(=O)[C@@H]4C=C(C)C(=NO)[C@H]5OC/C(=C\C=C\[C@@H]3C)[C@]54O)C[C@@H]2OC)O[C@@H](C)[C@@H]1O` [Compound 31] was 10 to 100 nM.
Then `CO[C@H]1C[C@H](O[C@@H]2/C(C)=C/C[C@@H]3C[C@@H](C[C@]4(C=C[C@H](C)[C@@H](C5CCCCC5)O4)O3)OC(=O)[C@@H]3C=C(C)C(=NO)[C@H]4OC/C(=C\C=C\[C@@H]2C)[C@]43O)O[C@@H](C)[C@@H]1O` [Compound 33], with 10 to 100 nM; and `CO[C@H]1C[C@H](O[C@@H]2/C(C)=C/C[C@@H]3C[C@@H](C[C@]4(C=C[C@H](C)[C@@H](C5CCCCC5)O4)O3)OC(=O)[C@@H]3C=C(C)[C@@H](O)[C@H]4OC/C(=C\C=C\[C@@H]2C)[C@]43O)O[C@@H](C)[C@@H]1O` [Compound 32], with 101 to 300 nM.
